Data as given in ChEMBL document CHEMBL1649335, “Discovery of {1-[4-(2-{hexahydropyrrolo[3,4-c]pyrrol-2(1H)-yl}-1H-benzimidazol-1-yl)piperidin-1-yl]cyclooctyl}methanol, systemically potent novel non-peptide agonist of nociceptin/orphanin FQ receptor as analgesic for the treatment of neuropathic pain: design, synthesis, and structure-activity …” (Bioorg Med Chem, 2010).
Calls of active or inactive are those of the source.

Tests used:
[1] = Drug level Sprague-Dawley rat spinal cord at 10 mg/kg, sc after 0.5 hrs; format: ADME, organism-based; design: dose 10 mg/kg, route subcutaneous; conditions: read-out: Drug uptake
[2] = Drug level Sprague-Dawley rat spinal cord at 10 mg/kg, sc after […]; format: ADME, organism-based; design: dose 10 mg/kg, route subcutaneous; conditions: read-out: Drug uptake
[3] = Drug level Sprague-Dawley rat plasma at 10 mg/kg, sc after 0.5 hrs; format: ADME, organism-based; design: dose 10 mg/kg, route subcutaneous; conditions: read-out: Drug uptake
[4] = test system: Rattus norvegicus; assay: Antiallodynic activity against von Frey hair mechanically stimulated neuropathic pain in Sprague-Dawley rat assessed as effect on allodynia in contralateral paw at 5.5 to 170 nmol/site, icv after 20 mins; format: functional, organism-based
[5] = test system: Rattus norvegicus; assay: Antiallodynic activity against von Frey hair mechanically stimulated neuropathic pain in Sprague-Dawley rat assessed as increase of response threshold per site at 55 nmol/site administered intrathecally after 20 mins relative to control; format: functional
[6] = test system: Rattus norvegicus; assay: Antiallodynic activity against von Frey hair mechanically stimulated neuropathic pain in Sprague-Dawley rat assessed as increase of response threshold per site at 170 nmol/site administered intrathecally after 20 mins relative to control; format: functional
[7] = test system: Rattus norvegicus; assay: Antiallodynic activity against von Frey hair mechanically stimulated neuropathic pain in Sprague-Dawley rat assessed as increase of response threshold per site at 170 nmol/site administered intrathecally after 1 hr relative to control; format: functional
[8] = test system: Rattus norvegicus; assay: Antiallodynic activity against von Frey hair mechanically stimulated neuropathic pain in Sprague-Dawley rat assessed as increase of response threshold per site at 55 nmol/site, icv after 20 mins relative to control; format: functional
[9] = test system: Rattus norvegicus; assay: Toxicity in von Frey hair mechanically stimulated neuropathic pain Sprague-Dawley rat model assessed as respiratory depression at up to 170 nmol/site, icv; format: organism-based; conditions: in vivo, icv_or_intrathecal
[10] = biological target: Beta-2 adrenergic receptor (Homo sapiens) (UniProt P07550); assay: Inhibition of human beta2 adrenoceptor at 1 uM relative to control
Chain of Beta-2 adrenergic receptor (Homo sapiens) (P07550 whole entry, looked up): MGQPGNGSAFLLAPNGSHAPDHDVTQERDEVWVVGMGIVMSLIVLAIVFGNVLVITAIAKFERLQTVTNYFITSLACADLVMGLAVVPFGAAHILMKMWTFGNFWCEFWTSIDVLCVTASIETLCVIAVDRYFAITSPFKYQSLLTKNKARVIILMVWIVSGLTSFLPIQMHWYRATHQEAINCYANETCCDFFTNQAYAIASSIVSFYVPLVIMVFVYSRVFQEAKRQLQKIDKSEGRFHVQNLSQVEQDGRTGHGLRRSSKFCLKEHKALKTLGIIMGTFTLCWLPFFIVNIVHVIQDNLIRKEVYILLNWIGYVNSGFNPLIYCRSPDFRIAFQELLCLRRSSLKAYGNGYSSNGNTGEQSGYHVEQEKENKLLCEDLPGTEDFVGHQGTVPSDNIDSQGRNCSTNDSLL

[11] = biological target: Type-1 angiotensin II receptor (Homo sapiens) (UniProt P30556); assay: Inhibition of human angiotensin 2 AT1 receptor at 1 uM relative to control
Chain of Type-1 angiotensin II receptor (Homo sapiens) (P30556 whole entry): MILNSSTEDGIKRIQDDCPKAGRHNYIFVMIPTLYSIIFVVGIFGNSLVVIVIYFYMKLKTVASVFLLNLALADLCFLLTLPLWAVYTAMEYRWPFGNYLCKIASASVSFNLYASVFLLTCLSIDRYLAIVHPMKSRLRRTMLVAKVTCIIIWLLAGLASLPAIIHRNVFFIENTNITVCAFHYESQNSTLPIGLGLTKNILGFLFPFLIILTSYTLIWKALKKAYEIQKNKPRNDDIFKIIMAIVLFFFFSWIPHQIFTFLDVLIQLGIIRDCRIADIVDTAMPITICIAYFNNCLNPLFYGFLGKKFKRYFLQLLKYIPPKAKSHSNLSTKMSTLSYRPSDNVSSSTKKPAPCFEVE

[12] = biological target: Type-2 angiotensin II receptor (Homo sapiens) (UniProt P50052); assay: Inhibition of human angiotensin 2 AT2 receptor at 1 uM relative to control
Chain of Type-2 angiotensin II receptor (Homo sapiens) (P50052 whole entry): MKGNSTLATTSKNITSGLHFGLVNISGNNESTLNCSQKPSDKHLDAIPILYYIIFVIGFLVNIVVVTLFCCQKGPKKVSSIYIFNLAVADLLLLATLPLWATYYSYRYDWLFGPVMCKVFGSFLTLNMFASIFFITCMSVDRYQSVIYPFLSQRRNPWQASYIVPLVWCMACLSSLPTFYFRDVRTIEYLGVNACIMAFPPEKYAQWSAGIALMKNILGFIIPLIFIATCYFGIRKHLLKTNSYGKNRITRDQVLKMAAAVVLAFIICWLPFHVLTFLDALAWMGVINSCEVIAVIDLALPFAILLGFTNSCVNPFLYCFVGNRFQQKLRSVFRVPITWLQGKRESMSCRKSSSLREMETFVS

[13] = biological target: D(1A) dopamine receptor (Homo sapiens) (UniProt P21728); assay: Inhibition of human dopamine D1 receptor at 1 uM relative to control
Chain of D(1A) dopamine receptor (Homo sapiens) (P21728 whole entry): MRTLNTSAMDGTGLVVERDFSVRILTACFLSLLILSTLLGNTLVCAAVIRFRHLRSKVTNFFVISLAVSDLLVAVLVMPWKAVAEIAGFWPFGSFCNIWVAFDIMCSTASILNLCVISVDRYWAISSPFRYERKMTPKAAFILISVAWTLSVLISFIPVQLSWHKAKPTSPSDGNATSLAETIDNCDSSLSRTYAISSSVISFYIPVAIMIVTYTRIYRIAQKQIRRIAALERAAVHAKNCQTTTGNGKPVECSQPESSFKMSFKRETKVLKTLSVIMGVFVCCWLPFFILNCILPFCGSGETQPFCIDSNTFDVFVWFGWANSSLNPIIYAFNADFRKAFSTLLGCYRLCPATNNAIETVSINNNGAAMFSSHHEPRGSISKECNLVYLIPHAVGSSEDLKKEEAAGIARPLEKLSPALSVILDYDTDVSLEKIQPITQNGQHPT

[14] = biological target: D(2) dopamine receptor (Homo sapiens) (UniProt P14416); assay: Inhibition of human dopamine D2 receptor at 1 uM relative to control
Chain of D(2) dopamine receptor (Homo sapiens) (P14416 whole entry): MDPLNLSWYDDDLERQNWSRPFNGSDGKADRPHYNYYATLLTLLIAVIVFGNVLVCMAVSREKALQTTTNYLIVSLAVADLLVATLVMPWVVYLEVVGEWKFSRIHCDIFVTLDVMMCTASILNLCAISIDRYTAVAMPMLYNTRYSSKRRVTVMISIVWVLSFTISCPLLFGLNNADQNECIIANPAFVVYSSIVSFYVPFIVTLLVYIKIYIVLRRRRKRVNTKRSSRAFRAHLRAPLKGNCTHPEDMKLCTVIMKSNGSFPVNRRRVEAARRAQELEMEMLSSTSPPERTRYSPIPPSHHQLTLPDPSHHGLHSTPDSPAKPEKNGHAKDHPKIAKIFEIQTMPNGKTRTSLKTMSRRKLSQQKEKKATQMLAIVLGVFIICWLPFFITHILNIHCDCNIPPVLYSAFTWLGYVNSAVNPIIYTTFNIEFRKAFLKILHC

[15] = biological target: Glutamate NMDA receptor (Rattus norvegicus) (UniProt P35439+Q00959+Q00960+Q00961+Q62645+Q8VHN2+Q9R1M7); assay: Inhibition of rat NMDA receptor at 1 uM relative to control; format: protein-complex assay
[16] = biological target: Histamine H3 receptor (Rattus norvegicus) (UniProt Q9QYN8); assay: Inhibition of rat histamine H3 receptor at 1 uM relative to control
Chain of Histamine H3 receptor (Rattus norvegicus) (Q9QYN8 whole entry): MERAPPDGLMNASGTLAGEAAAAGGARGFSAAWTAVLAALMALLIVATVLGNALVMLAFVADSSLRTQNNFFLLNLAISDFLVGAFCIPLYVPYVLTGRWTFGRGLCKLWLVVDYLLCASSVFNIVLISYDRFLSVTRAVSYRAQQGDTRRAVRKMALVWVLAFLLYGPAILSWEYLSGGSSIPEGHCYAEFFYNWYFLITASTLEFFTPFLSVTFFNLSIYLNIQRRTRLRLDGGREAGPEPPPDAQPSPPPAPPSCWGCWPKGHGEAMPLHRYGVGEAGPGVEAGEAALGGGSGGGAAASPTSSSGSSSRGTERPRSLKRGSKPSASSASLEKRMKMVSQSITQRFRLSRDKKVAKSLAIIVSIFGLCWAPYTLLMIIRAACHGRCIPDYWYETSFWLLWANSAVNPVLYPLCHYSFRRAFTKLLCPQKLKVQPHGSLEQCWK

[17] = biological target: Muscarinic acetylcholine receptor M1 (Homo sapiens) (UniProt P11229); assay: Inhibition of human muscarinic M1 receptor at 1 uM relative to control
Chain of Muscarinic acetylcholine receptor M1 (Homo sapiens) (P11229 whole entry): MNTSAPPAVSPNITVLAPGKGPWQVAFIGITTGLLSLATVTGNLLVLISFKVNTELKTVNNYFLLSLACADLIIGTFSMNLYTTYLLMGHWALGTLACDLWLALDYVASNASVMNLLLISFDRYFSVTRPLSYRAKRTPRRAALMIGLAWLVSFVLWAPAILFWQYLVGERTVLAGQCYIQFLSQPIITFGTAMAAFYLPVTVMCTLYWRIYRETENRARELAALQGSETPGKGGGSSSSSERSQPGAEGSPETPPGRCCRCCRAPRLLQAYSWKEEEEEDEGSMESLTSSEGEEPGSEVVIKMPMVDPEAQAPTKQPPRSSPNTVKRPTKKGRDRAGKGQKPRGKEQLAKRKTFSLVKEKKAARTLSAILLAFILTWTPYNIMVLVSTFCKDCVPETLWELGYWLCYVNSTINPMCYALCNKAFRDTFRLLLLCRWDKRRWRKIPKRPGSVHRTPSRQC

[18] = organism: Homo sapiens; assay: Inhibition of human muscle-type nicotinic acetylcholine receptor at 1 uM relative to control
[19] = biological target: Glucocorticoid receptor (Homo sapiens) (UniProt P04150); assay: Inhibition of human glucocorticoid receptor at 1 uM relative to control
Chain of Glucocorticoid receptor (Homo sapiens) (P04150 whole entry): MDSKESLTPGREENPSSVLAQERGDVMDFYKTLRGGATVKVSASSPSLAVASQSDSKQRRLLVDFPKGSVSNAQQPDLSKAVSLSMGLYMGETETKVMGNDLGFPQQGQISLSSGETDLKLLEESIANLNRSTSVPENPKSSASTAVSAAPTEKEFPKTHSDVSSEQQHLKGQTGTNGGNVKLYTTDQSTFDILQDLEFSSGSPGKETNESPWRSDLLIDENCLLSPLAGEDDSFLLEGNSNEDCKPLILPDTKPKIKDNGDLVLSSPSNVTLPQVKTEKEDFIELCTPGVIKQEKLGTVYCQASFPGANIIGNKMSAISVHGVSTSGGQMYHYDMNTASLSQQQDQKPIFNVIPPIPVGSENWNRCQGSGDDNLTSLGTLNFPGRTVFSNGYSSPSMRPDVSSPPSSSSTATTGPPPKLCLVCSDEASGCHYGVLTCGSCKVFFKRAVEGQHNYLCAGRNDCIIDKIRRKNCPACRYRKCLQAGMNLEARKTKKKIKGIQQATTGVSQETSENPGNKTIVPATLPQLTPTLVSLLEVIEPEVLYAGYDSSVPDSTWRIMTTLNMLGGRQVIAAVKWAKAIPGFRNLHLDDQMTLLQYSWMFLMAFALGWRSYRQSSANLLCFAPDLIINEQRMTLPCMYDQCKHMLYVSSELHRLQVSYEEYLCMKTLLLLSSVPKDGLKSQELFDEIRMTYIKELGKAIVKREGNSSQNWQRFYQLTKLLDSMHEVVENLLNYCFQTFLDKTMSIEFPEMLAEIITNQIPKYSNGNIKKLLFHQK

[20] = biological target: L-type calcium channel, diltiazem site (Rattus norvegicus, UniProt P22002+P27732+Q02485); assay: Inhibition of rat L-type calcium channel diltiazem site at 1 uM relative to control
[21] = biological target: L-type calcium channel, verapamil site (Rattus norvegicus, UniProt P22002+P27732+Q02485); assay: Inhibition of rat L-type calcium channel verapamil site at 1 uM relative to control
[22] = organism: Rattus norvegicus; assay: Inhibition of rat N-type calcium channel at 1 uM relative to control
[23] = organism: Rattus norvegicus; assay: Inhibition of rat K+V channel at 1 uM relative to control
[24] = organism: Rattus norvegicus; assay: Stimulation of rat adenylate cyclase at 1 uM relative to basal activity

SMILES: OCC1(N2CCC(n3c(N4CC5CNCC5C4)nc4ccccc43)CC2)CCCCCCC1 (centres undefined)
- concentration at 0.5 h [1]: 48 ng/mL
- concentration at […] [2]: 63 ng/mL
- concentration at 0.5 h [3]: 600 ng/mL
- Activity [4]: inactive
- Activity [5]: 49.4%
- Activity [6]: 59.3%
- Activity [7]: 45.5%
- Activity [8]: 23.7%
- Activity [9]: Non-toxic
- inhibition [10]: 53%
- inhibition [11]: < 10%
- inhibition [12]: < 10%
- inhibition [13]: < 10%
- inhibition [14]: < 10%
- inhibition [15]: < 10%
- inhibition [16]: < 10%
- inhibition [17]: 15%
- inhibition [18]: 21%
- inhibition [19]: < 10%
- inhibition at 1 µM [20]: 18%
- inhibition at 1 µM [21]: < 10%
- inhibition [22]: < 10%
- inhibition [23]: < 10%
- inhibition [24]: < 10%
